{"source": "patent US10792289B2", "about": "(Horizon Orphan LLC, priority 2009, dated 2020)", "system": "P. aeruginosa isolates", "assay": "Phase 2 study: MIC of P. aeruginosa isolates to levofloxacin", "type": "cell-based", "details": "Pseudomonas aeruginosa", "procedure": "Efficacy was evaluated by microbiologic assessment of sputum samples, time to need for anti-pseudomonal antimicrobials, the Cystic Fibrosis Questionaire-Revised (CFQ-R), and pulmonary function tests. […] Pair-wise comparisons between all the treatment arms were conducted as secondary analyses.", "note": "Where two headings read alike, the source gives them in different places.", "data": [{"smiles": "C[C@H]1COc2c(N3CCN(C)CC3)c(F)cc3c(=O)c(C(=O)O)cn1c23", "note": "[Levofloxacin, levofloxacin]", "values": [{"measurement": "MIC50", "setting": "24 h, EE, 120 mg QD, Day 1, read-out: MIC50 (all organisms)", "value": 4, "unit": "µg/mL"}, {"measurement": "MIC90", "setting": "24 h, EE, 120 mg QD, Day 1, read-out: MIC90 (all organisms)", "value": 32, "unit": "µg/mL"}, {"measurement": "MIC50", "setting": "24 h, EE, 240 mg BID, Day 1, read-out: MIC50 (all organisms)", "value": 4, "unit": "µg/mL"}, {"measurement": "MIC90", "setting": "24 h, EE, 240 mg BID, Day 1, read-out: MIC90 (all organisms)", "value": 16, "unit": "µg/mL"}, {"measurement": "MIC50", "setting": "24 h, EE, 240 mg QD, Day 1, read-out: MIC50 (all organisms)", "value": 4, "unit": "µg/mL"}, {"measurement": "MIC90", "setting": "24 h, EE, 240 mg QD, Day 1, read-out: MIC90 (all organisms)", "value": 16, "unit": "µg/mL"}, {"measurement": "MIC50", "setting": "24 h, EE, combined 240 mg QD and BID, Day 1, read-out: MIC50 (all organisms)", "value": 4, "unit": "µg/mL"}, {"measurement": "MIC90", "setting": "24 h, EE, combined 240 mg QD and BID, Day 1, read-out: MIC90 (all organisms)", "value": 16, "unit": "µg/mL"}, {"measurement": "MIC50", "setting": "24 h, MITT, 120 mg QD, Day 1, read-out: Highest MIC, MIC50", "value": 8, "unit": "µg/mL"}, {"measurement": "MIC90", "setting": "24 h, MITT, 120 mg QD, Day 1, read-out: Highest MIC, MIC90", "value": 32, "unit": "µg/mL"}, {"measurement": "MIC50", "setting": "24 h, MITT, 120 mg QD, Day 1, read-out: MIC50 (all organisms)", "value": 4, "unit": "µg/mL"}, {"measurement": "MIC90", "setting": "24 h, MITT, 120 mg QD, Day 1, read-out: MIC90 (all organisms)", "value": 32, "unit": "µg/mL"}, {"measurement": "MIC50", "setting": "24 h, MITT, 240 mg BID, Day 1, read-out: Highest MIC, MIC50", "value": 6, "unit": "µg/mL"}, {"measurement": "MIC90", "setting": "24 h, MITT, 240 mg BID, Day 1, read-out: Highest MIC, MIC90", "value": 32, "unit": "µg/mL"}, {"measurement": "MIC50", "setting": "24 h, MITT, 240 mg BID, Day 1, read-out: MIC50 (all organisms)", "value": 4, "unit": "µg/mL"}, {"measurement": "MIC90", "setting": "24 h, MITT, 240 mg BID, Day 1, read-out: MIC90 (all organisms)", "value": 16, "unit": "µg/mL"}, {"measurement": "MIC50", "setting": "24 h, MITT, 240 mg QD, Day 1, read-out: Highest MIC, MIC50", "value": 4, "unit": "µg/mL"}, {"measurement": "MIC90", "setting": "24 h, MITT, 240 mg QD, Day 1, read-out: Highest MIC, MIC90", "value": 32, "unit": "µg/mL"}, {"measurement": "MIC50", "setting": "24 h, MITT, 240 mg QD, Day 1, read-out: MIC50 (all organisms)", "value": 4, "unit": "µg/mL"}, {"measurement": "MIC90", "setting": "24 h, MITT, 240 mg QD, Day 1, read-out: MIC90 (all organisms)", "value": 16, "unit": "µg/mL"}, {"measurement": "MIC50", "setting": "24 h, MITT, combined 240 mg QD and BID, Day 1, read-out: Highest MIC, MIC50", "value": 4, "unit": "µg/mL"}, {"measurement": "MIC90", "setting": "24 h, MITT, combined 240 mg QD and BID, Day 1, read-out: Highest MIC, MIC90", "value": 32, "unit": "µg/mL"}, {"measurement": "MIC50", "setting": "24 h, MITT, combined 240 mg QD and BID, Day 1, read-out: MIC50 (all organisms)", "value": 4, "unit": "µg/mL"}, {"measurement": "MIC90", "setting": "24 h, MITT, combined 240 mg QD and BID, Day 1, read-out: MIC90 (all organisms)", "value": 16, "unit": "µg/mL"}, {"measurement": "MIC50", "setting": "24 h, Table 14, EE, 120 mg QD, Day 1, read-out: MIC50 (all organisms)", "value": 8, "unit": "µg/mL"}, {"measurement": "MIC90", "setting": "24 h, Table 14, EE, 120 mg QD, Day 1, read-out: MIC90 (all organisms)", "value": 32, "unit": "µg/mL"}, {"measurement": "MIC50", "setting": "24 h, Table 14, EE, 240 mg BID, Day 1, read-out: MIC50 (all organisms)", "value": 6, "unit": "µg/mL"}, {"measurement": "MIC90", "setting": "24 h, Table 14, EE, 240 mg BID, Day 1, read-out: MIC90 (all organisms)", "value": 32, "unit": "µg/mL"}, {"measurement": "MIC50", "setting": "24 h, Table 14, EE, 240 mg QD, Day 1, read-out: MIC50 (all organisms)", "value": 4, "unit": "µg/mL"}, {"measurement": "MIC90", "setting": "24 h, Table 14, EE, 240 mg QD, Day 1, read-out: MIC90 (all organisms)", "value": 32, "unit": "µg/mL"}, {"measurement": "MIC50", "setting": "24 h, Table 14, EE, combined 240 mg QD and BID, Day 1, read-out: MIC50 (all organisms)", "value": 4, "unit": "µg/mL"}, {"measurement": "MIC90", "setting": "24 h, Table 14, EE, combined 240 mg QD and BID, Day 1, read-out: MIC90 (all organisms)", "value": 32, "unit": "µg/mL"}, {"measurement": "MIC50", "setting": "168 h, EE, 120 mg QD, Day 7, read-out: MIC50 (all organisms)", "value": 4, "unit": "µg/mL"}, {"measurement": "MIC90", "setting": "168 h, EE, 120 mg QD, Day 7, read-out: MIC90 (all organisms)", "value": 16, "unit": "µg/mL"}, {"measurement": "MIC50", "setting": "168 h, EE, 240 mg BID, Day 7, read-out: MIC50 (all organisms)", "value": 4, "unit": "µg/mL"}, {"measurement": "MIC90", "setting": "168 h, EE, 240 mg BID, Day 7, read-out: MIC90 (all organisms)", "value": 16, "unit": "µg/mL"}, {"measurement": "MIC50", "setting": "168 h, EE, 240 mg QD, Day 7, read-out: MIC50 (all organisms)", "value": 2, "unit": "µg/mL"}, {"measurement": "MIC90", "setting": "168 h, EE, 240 mg QD, Day 7, read-out: MIC90 (all organisms)", "value": 16, "unit": "µg/mL"}, {"measurement": "MIC50", "setting": "168 h, EE, combined 240 mg QD and BID, Day 7, read-out: MIC50 (all organisms)", "value": 4, "unit": "µg/mL"}, {"measurement": "MIC90", "setting": "168 h, EE, combined 240 mg QD and BID, Day 7, read-out: MIC90 (all organisms)", "value": 16, "unit": "µg/mL"}, {"measurement": "MIC50", "setting": "168 h, MITT, 120 mg QD, Day 7, read-out: Highest MIC, MIC50", "value": 8, "unit": "µg/mL"}, {"measurement": "MIC90", "setting": "168 h, MITT, 120 mg QD, Day 7, read-out: Highest MIC, MIC90", "value": 32, "unit": "µg/mL"}, {"measurement": "MIC50", "setting": "168 h, MITT, 120 mg QD, Day 7, read-out: MIC50 (all organisms)", "value": 4, "unit": "µg/mL"}, {"measurement": "MIC90", "setting": "168 h, MITT, 120 mg QD, Day 7, read-out: MIC90 (all organisms)", "value": 16, "unit": "µg/mL"}, {"measurement": "MIC50", "setting": "168 h, MITT, 240 mg BID, Day 7, read-out: Highest MIC, MIC50", "value": 6, "unit": "µg/mL"}, {"measurement": "MIC90", "setting": "168 h, MITT, 240 mg BID, Day 7, read-out: Highest MIC, MIC90", "value": 32, "unit": "µg/mL"}, {"measurement": "MIC50", "setting": "168 h, MITT, 240 mg BID, Day 7, read-out: MIC50 (all organisms)", "value": 4, "unit": "µg/mL"}, {"measurement": "MIC90", "setting": "168 h, MITT, 240 mg BID, Day 7, read-out: MIC90 (all organisms)", "value": 16, "unit": "µg/mL"}, {"measurement": "MIC50", "setting": "168 h, MITT, 240 mg QD, Day 7, read-out: Highest MIC, MIC50", "value": 4, "unit": "µg/mL"}, {"measurement": "MIC90", "setting": "168 h, MITT, 240 mg QD, Day 7, read-out: Highest MIC, MIC90", "value": 16, "unit": "µg/mL"}]}]}
